pIC50: −log10 of the molar value.
Key:
hP2X3 = target: T1, hP2X3 (Homo sapiens, UniProt P56373); experiment: Calcium uptake assay (Ca influx), P2X antagonist assay, P2X3 homomer; format: cell-based; settings: inhibition of agonist-induced calcium influx
T1 construct: expressed in transfected cells
T1 sequence (P56373 1-397): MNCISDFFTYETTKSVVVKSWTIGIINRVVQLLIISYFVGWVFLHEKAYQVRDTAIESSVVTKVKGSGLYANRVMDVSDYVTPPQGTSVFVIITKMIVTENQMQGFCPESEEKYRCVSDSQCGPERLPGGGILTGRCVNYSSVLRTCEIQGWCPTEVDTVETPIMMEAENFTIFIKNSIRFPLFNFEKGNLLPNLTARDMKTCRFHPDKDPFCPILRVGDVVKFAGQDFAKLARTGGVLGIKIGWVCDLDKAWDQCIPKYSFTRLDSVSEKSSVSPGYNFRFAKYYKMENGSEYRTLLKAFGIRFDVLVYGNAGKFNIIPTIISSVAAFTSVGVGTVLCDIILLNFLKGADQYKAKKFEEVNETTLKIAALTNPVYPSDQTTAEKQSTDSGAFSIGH
From the text: (§1) Human P2X3 (Accession no. NM_002559), P2X2 (Accession no. NM_170682) and Rat P2X3 (Accession no. NM_031075) and P2X2 (Accession no. NM_053656) are cloned into a mammalian expression vector (e.g., pcDNAS/TO or pcDNA3 Invitrogen). The human P2X2/3 chimera clone is created as described by Neelands et al, and then cloned into an expression vector as above. Receptors are expressed in cells (e.g., HEK293 or 1321N1 (obtained from the ECACC)) via transient transfection using standard lipid mediated transfection, or by creation of stable transfectants for each receptor. For expression of the P2X2/3 heteromeric receptor, the P2X3 expression vector is stably transfected into a cell line already stably expressing P2X2. P2X2/3 heteromer function is isolated using pharmacological methods. Cell lines are maintained in DMEM+5% Glutamax, the appropriate level of selective antibiotic, and 10% heat inactivated FBS.
(§2) Functional activity of compounds at the P2X receptor is determined by measuring their ability to inhibit agonist-induced calcium influx. Compounds are tested for antagonist activity against the P2X2/3 chimera, the P2X3 homomer, or the P2X2/3 heteromer. At the start of each screening day, the agonist EC50 is determined. Compound % inhibition or IC50s are subsequently determined using a predetermined agonist concentration (EC50-90 depending on cell line) as a stimulus. The agonists used are αβMeATP, ATP, or other ATP analogs. Compounds may be tested at concentrations ranging from 1 pM to 10 μM.
(§3) To test for antagonist activity, cells expressing the appropriate receptor are seeded onto 96 or 384 well plates 18-24 hours prior to assay. On the day of the assay, cells are loaded with calcium-sensitive fluorescent dye (e.g., Fluo-4 no wash reagent-Invitrogen cat#F36206, or the BD™ PBX Calcium Assay Kit-BD cat #640175) in Hank's Buffered Salt Solution (HBSS) with up to 10 mM supplemental CaCl2. Plates are incubated at 37° C. and then equilibrated at room temperature. Antagonism of agonist-induced calcium influx is measured using a fluorescent imaging plate reader (e.g. FLIPR^TETRA, Molecular Devices, Sunnyvale, Calif.). The assay comprises two stages: a pre-treatment phase followed by a treatment phase. Compounds may be tested as follows: For the pre-treatment phase, 50 μL of 3× concentration of test compound in HBSS is added to cells containing 100 μL of dye loading media to achieve a final concentration of 1× test compound. For the treatment phase, at a set interval after pre-treatment (1-30 minutes), 50 μL of 1× test compound plus 4× agonist solution is added, resulting in a final concentration of 1× compound and 1× agonist. Fluorescence is measured at 0.1-3 second intervals—with an excitation wavelength of 494 nm and an emission wavelength of 515 nm. Responses are measured as (peak fluorescence after agonist addition) minus (baseline fluorescence prior to treatment). Percent inhibition is calculated as follows:
(§4) [formula] IC50 values are determined by analyzing dose response data in a 4 parameter logistic fit using GraphPad Prizm.
(§5) The following compounds have been or can be prepared according to the synthetic methods described herein. A calcium uptake assay was performed as described above and the activity of each compound is expressed as follows: […]

hP2X2/3H = target: T2, hP2X2/3H (Homo sapiens, UniProt P56373+Q9UBL9); experiment: Calcium uptake assay (Ca influx), P2X antagonist assay, P2X2/3 heteromer; format: cell-based; settings: inhibition of agonist-induced calcium influx
T2 construct: expressed in transfected cells
T2 sequence (P56373 1-397): T1 sequence (P56373 1-397)
T2 sequence (Q9UBL9 1-471): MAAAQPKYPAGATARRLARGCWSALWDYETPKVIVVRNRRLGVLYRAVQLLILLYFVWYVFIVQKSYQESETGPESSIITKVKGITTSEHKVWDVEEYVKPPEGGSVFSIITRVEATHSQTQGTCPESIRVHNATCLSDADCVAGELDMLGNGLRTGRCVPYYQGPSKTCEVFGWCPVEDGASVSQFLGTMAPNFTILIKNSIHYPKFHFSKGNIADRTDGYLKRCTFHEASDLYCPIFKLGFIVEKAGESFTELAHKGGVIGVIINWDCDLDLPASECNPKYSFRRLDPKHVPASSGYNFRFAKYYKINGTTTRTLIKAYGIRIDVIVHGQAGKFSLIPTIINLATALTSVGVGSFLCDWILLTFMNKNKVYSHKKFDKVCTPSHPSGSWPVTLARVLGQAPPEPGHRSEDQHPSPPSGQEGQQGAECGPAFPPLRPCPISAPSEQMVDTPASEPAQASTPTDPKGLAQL
From the text: as §1, §2, §3, §4, §5

| Structure (SMILES) | pIC50 (hP2X3) | pIC50 (hP2X2/3H) |
| --- | --- | --- |
| Cc1ccc(-c2cc(C(=O)NCc3ccc(C)nc3)cc(N3CCC[C@@H]3CO)c2)nc1 [Compound 63, 3-((R)-2-Hydroxymethyl-pyrrolidin-1-yl)-5-(5-methyl-pyridin-2-yl)-N-(6-methyl-pyridin-3-ylmethyl)-benzamide] | 7.93 | 7.59 |
| Cc1ccc(-c2cc(C(=O)NCc3ccc(C)nc3)cc(-c3ccccc3C#N)c2)cc1 [Compound 27, 2″-Cyano-4-methyl-[1,1′;3′,1″]terphenyl-5′-carboxylic acid (6-methyl-pyridin-3-ylmethyl)-amide] | 6.71 | 6.85 |
| Cc1ccc(-c2cc(C(=O)N[C@H](C)c3cnc(C)nc3)cc(-c3ccccc3C(N)=O)c2)nc1 [Compound 47, 5′-(5-Methyl-pyridin-2-yl)-biphenyl-2,3′-dicarboxylic acid 2-amide 3′-{[(R)-1-(2-methyl-pyrimidin-5-yl)-ethyl]-amide}] | 7.54 | 7.43 |
| COCc1ccccc1-c1cc(C(=O)N[C@H](C)c2cnc(C)nc2)cc(-c2ccc(C)cn2)c1 [Compound 45, 2′-Methoxymethyl-5-(5-methyl-pyridin-2-yl)-biphenyl-3-carboxylic acid [(R)-1-(2-methyl-pyrimidin-5-yl)-ethyl]-amide] | 7.84 | 7.87 |
| Cc1ccc(-c2cc(C(=O)NCc3ccc(C)nc3)cc(-c3ccccc3CO)c2)cc1 [Compound 8, 2″-Hydroxymethyl-4-methyl-[1,1′;3′,1″]terphenyl-5′-carboxylic acid (6-methyl-pyridin-3-ylmethyl)-amide] | 6.74 | 6.94 |
| Cc1ccc(-c2cc(C(=O)NCc3ccc(C)nc3)cc(-c3ccncc3)c2)cc1 [Compound 22, 4′-Methyl-5-pyridin-4-yl-biphenyl-3-carboxylic acid (6-methyl-pyridin-3-ylmethyl)-amide] | 6.72 | 6.85 |
| Cc1ccc(-c2cc(C(=O)N[C@@H](C)CO)cc(-c3cccc(F)c3F)c2)c(C#N)c1 [Compound 85, 2-Cyano-2″,3″-difluoro-4-methyl-[1,1′;3′,1″]terphenyl-5′-carboxylic acid ((S)-2-hydroxy-1-methyl-ethyl)-amide] | 7.50 | 5.87 |
| Cc1ccc(-c2cc(C(=O)NCc3ccc(C)nc3)cc(N3CCNCC3=O)c2)c(C#N)c1 [Compound 65, 2′-Cyano-4′-methyl-5-(2-oxo-piperazin-1-yl)-biphenyl-3-carboxylic acid (6-methyl-pyridin-3-ylmethyl)-amide] | 6.93 | 5.97 |
| Cc1ccc(-c2cc(C(=O)NCc3cnc(C)nc3)cc(-c3ncccn3)c2)cc1 [Compound 2, 4′-Methyl-5-pyrimidin-2-yl-biphenyl-3-carboxylic acid (2-methyl-pyrimidin-5-ylmethyl)-amide] | 7.11 | 6.39 |
| Cc1ccc(-c2cc(C(=O)NCc3ccc(C)nc3)cc(N3CCN(C)CC3=O)c2)cc1 [Compound 68, 4′-Methyl-5-(4-methyl-2-oxo-piperazin-1-yl)-biphenyl-3-carboxylic acid (6-methyl-pyridin-3-ylmethyl)-amide] | 6.43 | 5.86 |
| Cc1ccc(-c2cc(C(=O)NCc3cnc(C)nc3)cc(-c3ccc(C)cn3)c2)cc1 [Compound 1, 4′-Methyl-5-(5-methyl-pyridin-2-yl)-biphenyl-3-carboxylic acid (2-methyl-pyrimidin-5-ylmethyl)-amide] | 7.23 | 7.06 |
| Cc1ccc(-c2cc(C(=O)N[C@@H](C)CO)cc(N3CCCC3=O)c2)cc1 [Compound 60, 4′-Methyl-5-(2-oxo-pyrrolidin-1-yl)-biphenyl-3-carboxylic acid ((S)-2-hydroxy-1-methyl-ethyl)-amide] | 6.68 | 5.06 |
| Cc1ccc(-c2cc(C(=O)NCc3ccc(C)nc3)cc(-c3ccccc3CO)c2)nc1 [Compound 13, 2′-Hydroxymethyl-5-(5-methyl-pyridin-2-yl)-biphenyl-3-carboxylic acid (6-methyl-pyridin-3-ylmethyl)-amide] | 8.05 | 7.89 |
| Cc1ccc(-c2cc(C(=O)N[C@H](C)CN3CCOCC3)cc(-c3cnccc3C#N)c2)c(C#N)c1 [Compound 87, (R)-2′-Cyano-5-(4-cyanopyridin-3-yl)-4′-methyl-N-(1-morpholinopropan-2-yl)biphenyl-3-carboxamide] | 7.65 | 7.73 |
| Cc1ccc(-c2cc(C(=O)N[C@@H](C)CO)cc(-c3cnccc3C#N)c2)c(C#N)c1 [Compound 86, 2′-Cyano-5-(4-cyano-pyridin-3-yl)-4′-methyl-biphenyl-3-carboxylic acid ((S)-2-hydroxy-1-methyl-ethyl)-amide] | 8.66 | 7.55 |
| Cc1ccc(-c2cc(C(=O)N[C@@H](C)CO)cc(-c3c(C)cccc3C#N)c2)nc1 [Compound 72, 6′-Cyano-2′-methyl-5-(5-methyl-pyridin-2-yl)-biphenyl-3-carboxylic acid ((S)-2-hydroxy-1-methyl-ethyl)-amide] | 7.23 |  |
| Cc1ccc(-c2cc(C(=O)N[C@@H](C)CO)cc(-c3ccccc3CO)c2)nc1 [Compound 82, 2′-Hydroxymethyl-5-(5-methyl-pyridin-2-yl)-biphenyl-3-carboxylic acid ((S)-2-hydroxy-1-methyl-ethyl)-amide] | 7.48 |  |
| Cc1ccc(-c2cc(C(=O)N[C@@H](C)CO)cc(-c3ccc(C#N)cc3C)c2)nc1 [Compound 76, 4′-Cyano-2′-methyl-5-(5-methyl-pyridin-2-yl)-biphenyl-3-carboxylic acid ((S)-2-hydroxy-1-methyl-ethyl)-amide] | 7.11 |  |
| Cc1ccc(-c2cc(C(=O)N[C@@H](C)CO)cc(-c3cccc(F)c3F)c2)nc1 [Compound 70, 2′,3′-Difluoro-5-(5-methyl-pyridin-2-yl)-biphenyl-3-carboxylic acid ((S)-2-hydroxy-1-methyl-ethyl)-amide] | 7.36 |  |
| Cc1ccc(-c2cc(C(=O)NCc3ccc(C)nc3)cc(-c3ccc(C#N)cc3)c2)cc1 [Compound 24, 4″-Cyano-4-methyl-[1,1′;3′,1″]terphenyl-5′-carboxylic acid (6-methyl-pyridin-3-ylmethyl)-amide] | 6.20 |  |
| Cc1ccc(-c2cc(C(=O)N[C@@H](C)CO)cc(-c3ccccc3CO)c2)c(C#N)c1 [Compound 88, 2-Cyano-2″-hydroxymethyl-4-methyl-[1,1′;3′,1″]terphenyl-5′-carboxylic acid ((S)-2-hydroxy-1-methyl-ethyl)-amide] | 8.15 |  |

Reference: patent US9133122B2, “Amide compounds, compositions and uses thereof” (EVOTEC AG, priority 2008, dated 2015)
